Tests used:
[1] = test system: A (CFX aptamer A) (RNA, aptamer) GGGAGACGCAACAGACUAGGUUGUGACUGCUUAGGCAGUUGUGGACGGCUAAGCCCACCAGAGGUCCGUAACUAGUCGCGUCAC; assay: stopped-flow fluorescence, global fit; conditions: K+ 125 mM, Mg2+ 5 mM; 40 mM HEPES, pH 7.4; association rate, reversible two-step model 4; k-1 1.6±0.2, k2 4±0.2, k-2 2.3±0.2 s^-1
[2] = test system: preRS (RNA, aptamer) GGGAGACGCAACUGAAUGAACAUAAGUGAACGCGACUCUAUCUCCCUAAACUAGGAGUCAUAUAGCGGCACGGAGUUACACGAUCCGUAACUAGUCGCGUCAC; assay: stopped-flow fluorescence, global fit; conditions: K+ 125 mM, Mg2+ 5 mM; 40 mM HEPES, pH 7.4; association rate, two-step model 5; k-1 5.4±0.4, k2 12.1±0.7 s^-1
[3] = test system: RS (RNA, aptamer) GGGAGACGCACCUGAAUCAACAUACGUGAACGCGACUCUAUCUCCCCAAAUUAGGCGUCAGAUAGCGGCACGGAGUUACACGAUCCGUAACUAGUCGCGUCAC; assay: stopped-flow fluorescence, global fit; conditions: K+ 125 mM, Mg2+ 5 mM; 40 mM HEPES, pH 7.4; association rate, two-step model 5; k-1 2.9±0.7, k2 23±1 s^-1
[4] = test system: A (CFX aptamer A) (RNA, aptamer) GGGAGACGCAACAGACUAGGUUGUGACUGCUUAGGCAGUUGUGGACGGCUAAGCCCACCAGAGGUCCGUAACUAGUCGCGUCAC; assay: fluorescence titration (ligand quenching); conditions: K+ 125 mM, Mg2+ 10 mM; 40 mM HEPES, pH 7.4, 25 °C; 50 nM CFX; Mg2+ series

k1 [1]: 10 ± 0.2 µM/s
k1 [2]: 4.31 ± 0.06 µM/s
k1 [3]: 7.62 ± 0.11 µM/s
KD [4]: ~ 13 nM
SMILES: O=C(O)c1cn(C2CC2)c2cc(N3CCNCC3)c(F)cc2c1=O

Reference: publication PMC8053125 (2021)
